Reference: ChEMBL document CHEMBL4385621, “Synthesis and in vitro cytotoxicity evaluation of β-carboline-combretastatin carboxamides as apoptosis inducing agents: DNA intercalation and topoisomerase-II inhibition” (Bioorg Med Chem, 2019)
Calls of active or inactive are those of the source. The calls are words filed in the database; no cut-off is given here.

Assays:
A549 [1] = assay: Induction of apoptosis in human A549 cells assessed as viable cells at 1 uM after 24 hrs by Annexin V-FITC/propidium iodide staining based flow cytometry (reference value: 88.4%); type: functional; conditions: A549, 24 h, read-out: Activity
A549 [2] = assay: Induction of apoptosis in human A549 cells assessed as nuclear fragmentation at 1 uM after 24 hrs by Hoechst […] staining based fluorescence microscopic method; type: functional, cell-based
Calf thymus DNA [3] = assay: Effect on calf thymus DNA stabilization assessed as increase in negative band intensity by circular dichroism spectropolarimetric analysis; type: nucleic-acid assay; conditions: Bos taurus
A549 [4] = assay: Induction of apoptosis in human A549 cells after 24 hrs by Annexin V-FITC/propidium iodide staining based flow cytometry; type: functional, cell-based
A549 [5] = assay: Induction of apoptosis in human A549 cells assessed as chromatin condensation at 1 uM after 24 hrs by Hoechst […] staining based fluorescence microscopic method; type: functional, cell-based
A549 [6] = assay: Induction of apoptosis in human A549 cells assessed as cell shrinkage at 1 to 5 uM after 24 hrs by phase contrast microscopic method; type: functional, cell-based
A549 [7] = assay: Induction of apoptosis in human A549 cells assessed as necrotic cells at 1 uM after 24 hrs by Annexin V-FITC/propidium iodide staining based flow cytometry (reference value: 0%); type: functional
[8] = biological target: DNA topoisomerase II (Homo sapiens) (UniProt P11388+Q02880); assay: Inhibition of human topoisomerase-2 assessed as reduction in decatenation of kDNA at 10 uM incubated for 30 mins by ethidium bromide staining based agarose gel electrophoresis method; type: protein assay
A549 [9] = assay: Cell cycle arrest in human A549 cells assessed as increase in accumulation of G2/M phase at 1 to 5 uM after 24 hrs by propidium iodide staining based flow cytometric analysis; type: functional
A549 [10] = assay: Induction of apoptosis in human A549 cells assessed as increase in ROS generation at 1 to 5 uM after 24 hrs by Carboxy-DCFDA dye based fluorescence microscopic method; type: functional, cell-based
Calf thymus DNA [11] = assay: Binding affinity to calf thymus DNA assessed as hypochromicity after 5 mins by UV-Vis absorption spectral analysis; type: nucleic-acid assay; conditions: Bos taurus
A549 [12] = assay: Antiproliferative activity against human A549 cells assessed as reduction in cell viability after 48 hrs by SRB assay; type: functional, cell-based; conditions: A549, 48 h
A549 [13] = assay: Induction of apoptosis in human A549 cells assessed as viable cells at 5 uM after 24 hrs by Annexin V-FITC/propidium iodide staining based flow cytometry (reference value: 88.4%); type: functional; conditions: A549, 24 h, read-out: Activity
DU-145 = assay: Antiproliferative activity against human DU145 cells assessed as reduction in cell viability after 48 hrs by SRB assay; type: functional, cell-based; conditions: DU-145, 48 h
Calf thymus DNA [14] = assay: Binding affinity to calf thymus DNA assessed as confirmational change at DNA to compound ratio of 1:1 to 1:2 by circular dichroism analysis; type: nucleic-acid assay; conditions: Bos taurus
Calf thymus DNA [15] = assay: Binding affinity to calf thymus DNA assessed as hypochromicity at DNA to compound ratio of 1:1 to 1:2 by circular dichroism analysis; type: nucleic-acid assay; conditions: Bos taurus
A549 [16] = assay: Induction of apoptosis in human A549 cells assessed as viable cells at 3 uM after 24 hrs by Annexin V-FITC/propidium iodide staining based flow cytometry (reference value: 88.4%); type: functional; conditions: A549, 24 h, read-out: Activity
A549 [17] = assay: Induction of apoptosis in human A549 cells assessed as early apoptotic cells at 3 uM after 24 hrs by Annexin V-FITC/propidium iodide staining based flow cytometry (reference value: 11.2%); type: functional
A549 [18] = assay: Induction of apoptosis in human A549 cells assessed as late apoptotic cells at 5 uM after 24 hrs by Annexin V-FITC/propidium iodide staining based flow cytometry (reference value: 0.4%); type: functional
Calf thymus DNA [19] = assay: Binding affinity to calf thymus DNA assessed as decrease in emission peak intensity using varying DNA level by spectrofluorimetric method; type: nucleic-acid assay; conditions: Bos taurus
A549 [20] = assay: Induction of apoptosis in human A549 cells assessed as reduction in cell viability at 1 to 5 uM after 24 hrs by phase contrast microscopic method; type: functional, cell-based
A549 [21] = assay: Induction of apoptosis in human A549 cells assessed as early apoptotic cells at 1 uM after 24 hrs by Annexin V-FITC/propidium iodide staining based flow cytometry (reference value: 11.2%); type: functional
A549 [22] = assay: Induction of apoptosis in human A549 cells assessed as early apoptotic cells at 5 uM after 24 hrs by Annexin V-FITC/propidium iodide staining based flow cytometry (reference value: 11.2%); type: functional
A549 [23] = assay: Induction of apoptosis in human A549 cells assessed as necrotic cells at 5 uM after 24 hrs by Annexin V-FITC/propidium iodide staining based flow cytometry (reference value: 0%); type: functional
Calf thymus DNA [24] = assay: Binding affinity to calf thymus DNA assessed as unwinding effect at DNA to compound ratio of 1:1 to 1:2 by circular dichroism analysis; type: nucleic-acid assay; conditions: Bos taurus
A549 [25] = assay: Induction of apoptosis in human A549 cells assessed as cell detachment from substratum at 1 to 5 uM after 24 hrs by phase contrast microscopic method; type: functional, cell-based
A549 [26] = assay: Induction of apoptosis in human A549 cells assessed as late apoptotic cells at 3 uM after 24 hrs by Annexin V-FITC/propidium iodide staining based flow cytometry (reference value: 0.4%); type: functional
Calf thymus DNA [27] = assay: Stabilization of calf thymus DNA assessed as hyperchromicity at DNA to compound ratio of 1:1 by circular dichroism spectropolarimetric analysis; type: nucleic-acid assay; conditions: Bos taurus
A549 [28] = assay: Induction of apoptosis in human A549 cells assessed as necrotic cells at 3 uM after 24 hrs by Annexin V-FITC/propidium iodide staining based flow cytometry (reference value: 0%); type: functional
Calf thymus DNA [29] = assay: Binding affinity to calf thymus DNA assessed as dissociation constant after 5 mins by UV-Visible spectroscopic method; type: nucleic-acid assay, Bos taurus
A549 [30] = assay: Induction of apoptosis in human A549 cells assessed as increase in apoptotic nuclei at 3 to 5 uM after 24 hrs by Hoechst […] staining based fluorescence microscopic method; type: functional, cell-based
A549 [31] = assay: Cell cycle arrest in human A549 cells assessed as reduction in G0/G1 phase at 1 to 5 uM after 24 hrs by propidium iodide staining based flow cytometric analysis; type: functional
A549 [32] = assay: Induction of apoptosis in human A549 cells assessed as late apoptotic cells at 1 uM after 24 hrs by Annexin V-FITC/propidium iodide staining based flow cytometry (reference value: 0.4%); type: functional
HeLa = assay: Antiproliferative activity against human HeLa cells assessed as reduction in cell viability after 48 hrs by SRB assay; type: functional, cell-based
Calf thymus DNA [33] = assay: Binding affinity to calf thymus DNA assessed as decrease in emission peak intensity by spectrofluorimetric method; type: nucleic-acid assay; conditions: Bos taurus
Calf thymus DNA [34] = assay: Binding affinity to calf thymus DNA by circular dichroism spectropolarimetric analysis; type: nucleic-acid assay; conditions: Bos taurus

Q: Which viability at 1 µM (A549 [1]) does the source give for `COc1cc(/C(=C\c2ccc(C(F)(F)F)cc2)C(=O)NCc2cc3c([nH]c4ccccc43)c(-c3cccc(F)c3)n2)cc(OC)c1OC` here?
A: 69.7%

Q: And the Activity (A549 [2])?
A: Active

Q: And the Activity (Calf thymus DNA [3])?
A: Active

Q: What about the Activity (A549 [4]) of the same compound?
A: Dose-dependent effect

Q: What about the Activity (A549 [5]) of the same compound?
A: Active

Q: What about the Activity (A549 [6]) of the same compound?
A: Active

Q: What about the Activity (A549 [7]) of the same compound?
A: 3.2%

Q: What about the inhibition [8] of the same compound?
A: Active

Q: And the Activity (A549 [9])?
A: Dose-dependent effect

Q: And the Activity (A549 [10])?
A: Active

Q: What about the Activity (Calf thymus DNA [11]) of the same compound?
A: Active

Q: And the IC50 (A549 [12])?
A: 1010 nM

Q: What about the viability at 5 µM (A549 [13]) of the same compound?
A: 59.3%

Q: What about the IC50 (DU-145) of the same compound?
A: 1510 nM

Q: What about the Activity (Calf thymus DNA [14]) of the same compound?
A: Active

Q: What about the Activity (Calf thymus DNA [15]) of the same compound?
A: Active

Q: What about the viability at 3 µM (A549 [16]) of the same compound?
A: 62.8%

Q: What about the Activity (A549 [17]) of the same compound?
A: 28.6%

Q: And the Activity (A549 [18])?
A: 4.9%

Q: What about the Activity (Calf thymus DNA [19]) of the same compound?
A: Active

Q: What about the Activity (A549 [20]) of the same compound?
A: Active

Q: And the Activity (A549 [21])?
A: 20.4%

Q: And the Activity (A549 [22])?
A: 33.4%

Q: And the Activity (A549 [23])?
A: 2.4%

Q: And the Activity (Calf thymus DNA [24])?
A: Active

Q: What about the Activity (A549 [25]) of the same compound?
A: Active

Q: And the Activity (A549 [26])?
A: 6.7%

Q: And the Activity (Calf thymus DNA [27])?
A: Active

Q: And the Activity (A549 [28])?
A: 1.9%

Q: What about the Kd (Calf thymus DNA [29]) of the same compound?
A: 71000 nM

Q: What about the Activity (A549 [30]) of the same compound?
A: Active

Q: What about the Activity (A549 [31]) of the same compound?
A: Active

Q: What about the Activity (A549 [32]) of the same compound?
A: 6.8%

Q: What about the IC50 (HeLa) of the same compound?
A: 9970 nM

Q: And the Activity (Calf thymus DNA [33])?
A: Active

Q: Which inhibition [8] does the source give for `COc1ccc(-c2nc(CNC(=O)/C(=C/c3ccc(C(F)(F)F)cc3)c3cc(OC)c(OC)c(OC)c3)cc3c2[nH]c2ccccc23)cc1` here?
A: Active

Q: What about the Activity (Calf thymus DNA [11]) of the same compound?
A: Active

Q: What about the IC50 (A549 [12]) of the same compound?
A: 1170 nM

Q: What about the IC50 (DU-145) of the same compound?
A: 1370 nM

Q: What about the Activity (Calf thymus DNA [19]) of the same compound?
A: Active

Q: What about the Kd (Calf thymus DNA [29]) of the same compound?
A: 112000 nM

Q: What about the IC50 (HeLa) of the same compound?
A: 3160 nM

Q: What about the Activity (Calf thymus DNA [33]) of the same compound?
A: Active

Q: What about the Activity (Calf thymus DNA [34]) of the same compound?
A: Active
